Data: PMC5101207, “The Oxidosqualene Cyclase from the Oomycete Saprolegnia parasitica Synthesizes Lanosterol as a Single Product” (Frontiers in Microbiology, 2016)

Target: T1, SpLASA (Saprolegnia parasitica, UniProt A0A067BWL7)
T1 construct: gene SPRG_11783; full length, 805 residues (2415 bp amplicon from mycelium cDNA), C-terminal His6 tag (pET-DEST42), E. coli BL21 (DE3), about 91 kDa; not the truncated paralogue SpLASB (SPRG_17895, 472 residues)
T1 sequence (A0A067BWL7 1-805): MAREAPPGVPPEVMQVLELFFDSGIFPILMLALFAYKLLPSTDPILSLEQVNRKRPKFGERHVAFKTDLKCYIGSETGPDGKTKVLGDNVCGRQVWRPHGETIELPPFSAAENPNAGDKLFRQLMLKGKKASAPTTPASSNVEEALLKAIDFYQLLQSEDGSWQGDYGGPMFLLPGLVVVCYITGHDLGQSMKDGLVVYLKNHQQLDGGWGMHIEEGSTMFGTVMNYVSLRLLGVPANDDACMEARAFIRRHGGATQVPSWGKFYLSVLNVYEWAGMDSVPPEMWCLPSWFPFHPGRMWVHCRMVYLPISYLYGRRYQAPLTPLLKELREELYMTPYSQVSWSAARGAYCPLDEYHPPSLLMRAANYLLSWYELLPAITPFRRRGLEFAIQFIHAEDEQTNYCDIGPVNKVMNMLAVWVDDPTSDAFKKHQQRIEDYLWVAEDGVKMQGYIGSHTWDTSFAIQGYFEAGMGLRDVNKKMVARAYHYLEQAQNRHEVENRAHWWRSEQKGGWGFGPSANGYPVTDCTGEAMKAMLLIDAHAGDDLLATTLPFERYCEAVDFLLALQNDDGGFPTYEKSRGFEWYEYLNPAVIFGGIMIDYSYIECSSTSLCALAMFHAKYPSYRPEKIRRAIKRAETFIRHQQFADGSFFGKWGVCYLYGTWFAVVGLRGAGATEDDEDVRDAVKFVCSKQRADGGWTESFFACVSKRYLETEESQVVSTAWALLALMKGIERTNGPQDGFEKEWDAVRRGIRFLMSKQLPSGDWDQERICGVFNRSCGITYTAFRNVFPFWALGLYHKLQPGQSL
Assay: GC-MS of silylated sterols after incubation with purified enzyme
Format: biochemical
Details: 50 mM sodium phosphate pH 7.4, 25°C, 24 h; 10.7 μg substrate, 37.5-112.5 μg protein

SMILES	GC-MS of silylated sterols after incubation with purified enzyme
CC(C)=CCC/C(C)=C/CC/C(C)=C/CC/C=C(\C)CC/C=C(\C)CC[C@@H]1OC1(C)C [2,3-oxidosqualene]	These experiments confirmed the specific conversion of OS into LA.
CC(C)=CCC[C@@H](C)[C@H]1CC[C@@]2(C)C3=C(CC[C@]12C)[C@@]1(C)CC[C@H](O)C(C)(C)[C@@H]1CC3 [lanosterol]	the proportion of LA increased linearly with increasing protein concentration
